# According to ChEMBL document CHEMBL6134844, “Development of Next-Generation Antimalarial Acridones with Radical Cure Potential” (J Med Chem, 2025):
# pIC50: −log10 of the molar value.
# How the values were obtained:
# [1] = test system: Plasmodium falciparum; experiment: Antiplasmodial activity against asexual blood-stage (ABS) MDR Plasmodium falciparum Dd2 infected in human erythrocytes assessed as reduction in fluorescence measured after 72 hrs by Malaria SYBR Green I-based Fluorescence (MSF) assay; assay type: functional, organism-based; conditions: Dd2, Erythrocyte
# [2] = test system: Plasmodium yoelii; experiment: In vivo antiplasmodial activity against asexual blood-stage (ABS) Plasmodium yoelii MRA-428 infected in 4-day suppression CF1 mouse model assessed as reduction in parasitemia treated 24 hrs post infection daily measured on day 4; assay type: functional
# [3] = test system: Plasmodium cynomolgi; experiment: (§1) Antiplasmodial activity against schizont Plasmodium cynomolgi B strain infected in Macaca mulatta hepatocytes incubated with sporozoite containing salivary gland homogenate obtained from dissected Anopheles dirus mosquitoes (infected with Plasmodium cynomolgi B strain) treatment started on day 4 post infection and continued daily for 4 days into fresh changed media until day 8 assessed as Liver stage (LS) activity by measuring radical cure mode by immunofluorescent staining analysis; assay type: functional, organism-based; conditions: Hepatocyte
# [4] = Toxicity in CF1 mouse infected with asexual blood-stage (ABS) Plasmodium yoelii MRA-428 assessed as ruffled hair at 0.3 to 30 mg/kg, po treated 24 hrs post infection measured after 4 days; assay type: organism-based; conditions: in vivo, 96 h, dose 0.3-30 mg/kg, time 4 day
# [5] = mouse, microsomes, 1 h
# [6] = test system: Plasmodium cynomolgi; experiment: as §1, with “hypnozoite” for “schizont”; assay type: functional, organism-based; conditions: Hepatocyte
# [7] = as §1, with “Selectivity index, ratio of CC50 for Macaca mulatta hepatocytes to IC50 for antiplasmodial” for “Antiplasmodial”, “hypnozoite” for “schizont”, “prophylactic” for “radical cure”; assay type: toxicity, cell-based; conditions: rhesus monkey, read-out: Selectivity Index
# [8] = as §1, with “Selectivity index, ratio of CC50 for Macaca mulatta hepatocytes to IC50 for antiplasmodial” for “Antiplasmodial”, “prophylactic” for “radical cure”; assay type: toxicity, cell-based; conditions: rhesus monkey, read-out: Selectivity Index
# [9] = Toxicity in CF1 mouse infected with asexual blood-stage (ABS) Plasmodium yoelii MRA-428 assessed as lethargy at 0.3 to 30 mg/kg, po treated 24 hrs post infection measured after 4 days; assay type: organism-based; conditions: in vivo, 96 h, dose 0.3-30 mg/kg, time 4 day
# [10] = test system: Plasmodium falciparum; experiment: Antiplasmodial activity against asexual blood-stage (ABS) ATV-resistant clinical isolate Plasmodium falciparum Tm90-C2B infected in human erythrocytes assessed as reduction in fluorescence measured after 72 hrs by Malaria SYBR Green I-based Fluorescence (MSF) assay; assay type: functional, organism-based; conditions: Erythrocyte
# [11] = Toxicity in CF1 mouse infected with asexual blood-stage (ABS) Plasmodium yoelii MRA-428 assessed as weight loss at 0.3 to 30 mg/kg, po treated 24 hrs post infection measured after 4 days; assay type: organism-based; conditions: in vivo, 96 h, dose 0.3-30 mg/kg, time 4 day
# [12] = test system: Plasmodium cynomolgi; experiment: as §1, with “hypnozoite” for “schizont”, “prophylactic” for “radical cure”; assay type: functional, organism-based; conditions: Hepatocyte
# [13] = Toxicity in CF1 mouse infected with asexual blood-stage (ABS) Plasmodium yoelii MRA-428 assessed as hunching at 0.3 to 30 mg/kg, po treated 24 hrs post infection measured after 4 days; assay type: organism-based; conditions: in vivo, 96 h, dose 0.3-30 mg/kg, time 4 day
# [14] = test system: Plasmodium falciparum; experiment: Antiplasmodial activity against asexual blood-stage (ABS) CQ-sensitive Plasmodium falciparum D6 infected in human erythrocytes assessed as reduction in fluorescence measured after 72 hrs by Malaria SYBR Green I-based Fluorescence (MSF) assay; assay type: functional, organism-based; conditions: D6, Erythrocyte
# [15] = test system: Plasmodium cynomolgi; experiment: as §1, with “prophylactic” for “radical cure”; assay type: functional, organism-based; conditions: Hepatocyte
# [16] = test system: HepG2; experiment: Cytotoxicity against human HepG2 cells assessed as cell viability measured after 48 hrs by MTT assay; assay type: functional, cell-based; conditions: HepG2, 48 h
# [17] = Toxicity in CF1 mouse infected with asexual blood-stage (ABS) Plasmodium yoelii MRA-428 assessed as clinical toxicity at 0.3 to 30 mg/kg, po treated 24 hrs post infection measured after 4 days; assay type: organism-based; conditions: in vivo, dose 0.3-30 mg/kg
# [18] = Toxicity in CF1 mouse infected with asexual blood-stage (ABS) Plasmodium yoelii MRA-428 assessed as behavioural change at 0.3 to 30 mg/kg, po treated 24 hrs post infection measured after 4 days; assay type: organism-based; conditions: in vivo, dose 0.3-30 mg/kg
# [19] = test system: Hepatocyte; experiment: Cytotoxicity against Macaca mulatta hepatocytes assessed as cell viability measured after 48 hrs by MTT assay; assay type: toxicity, cell-based; conditions: rhesus monkey, 48 h
# [20] = Toxicity in CF1 mouse infected with asexual blood-stage (ABS) Plasmodium yoelii MRA-428 assessed as hyperactivity at 0.3 to 30 mg/kg, po treated 24 hrs post infection measured after 4 days; assay type: organism-based; conditions: in vivo, 96 h, dose 0.3-30 mg/kg, time 4 day
# [21] = as §1, with “Selectivity index, ratio of CC50 for Macaca mulatta hepatocytes to IC50 for antiplasmodial” for “Antiplasmodial”; assay type: toxicity, cell-based; conditions: rhesus monkey, read-out: Selectivity Index
# [22] = test system: Plasmodium yoelii; experiment: In vivo antiplasmodial activity against asexual blood-stage (ABS) Plasmodium yoelii MRA-428 infected in 4-day suppression CF1 mouse model assessed as reduction in parasitemia by measuring protection at 30 mg/kg, po treated 24 hrs post infection daily measured up to 28 days; assay type: functional, organism-based; conditions: time <= 28.0 day
# [23] = human, microsomes, 1 h
# [24] = as §1, with “Selectivity index, ratio of CC50 for Macaca mulatta hepatocytes to IC50 for antiplasmodial” for “Antiplasmodial”, “hypnozoite” for “schizont”; assay type: toxicity, cell-based; conditions: rhesus monkey, read-out: Selectivity Index
# [25] = test system: Plasmodium berghei; experiment: In vivo antiplasmodial activity against luciferase expressing liver stage Plasmodium berghei ANKA MRA-868 sporozoites infected in Albino C57BL/6 mouse model assessed as blood stage infection at 40 mg/kg, po daily measured 72 hrs; assay type: functional, organism-based
# [26] = test system: Plasmodium berghei; experiment: In vivo antiplasmodial activity against luciferase expressing liver stage Plasmodium berghei ANKA MRA-868 sporozoites infected in Albino C57BL/6 mouse model assessed as protection at 10 mg/kg, po daily measured 24 to 72 hrs by real-time In Vivo Imaging System (IVIS); assay type: functional; conditions: time lower 24.0 hrs, time upper […]
SMILES,pIC50 [1],ED50 [2],ED90 [2],pIC50 [3],CLH [5],pIC50 [6],selectivity ratio at 96 h [7],selectivity ratio at 96 h [8],pIC50 [10],pIC50 [12],pIC50 [14],pIC50 [15],pIC50 [16],Activity [17],Activity [18],CC50 [19],selectivity ratio at 96 h [21],t1/2 [23],selectivity ratio at 96 h [24],further results
O=c1c2c([nH]c3ccc(Oc4ccc(OC(F)(F)F)cc4)cc13)CCCC2,7.88,1.8 mg/kg,7.8 mg/kg,< 4.70,56.8 µL/min/mg,< 4.70,> 5.25,> 40,7.52,5.42,8.12,6.30,< 3.70,Non-toxic,Non-toxic,> 20000 nM,–,–,–,Activity [4]: Non-toxic; Activity [9]: Non-toxic; Activity [11]: Non-toxic; Activity [13]: Non-toxic; Activity [20]: Non-toxic
O=c1c2ccc(Oc3ccc(OC(F)(F)F)cc3)cc2[nH]c2cc(F)c(Cl)cc12,8.36,–,0.17 mg/kg,5.18,< 3.125 µL/min/mg,< 4.70,> 48.8,> 33.3,7.32,6.39,8.36,6.22,< 3.70,Non-toxic,Non-toxic,> 20000 nM,> 3.05,> 1 h,–,Activity [22]: Active; Out Of 4 - 3 Mouse Cured
CC(C)(C)OC(=O)N1CCC(Oc2ccc3c(=O)c4c(F)cc(Cl)cc4[nH]c3c2)C1 (stereo not drawn),9.74,0.1 mg/kg,0.43 mg/kg,6.02,< 3.125 µL/min/mg,5.61,18.4,176,6.95,6.17,–,7.15,< 5.60,Non-toxic,Non-toxic,12300 nM,12.8,> 1 h,4.96,–
O=c1c2c([nH]c3cc(Oc4cccc(OC(F)(F)F)c4)ccc13)CCCC2,9.27,–,–,5.16,29.7 µL/min/mg,5.10,2.18,16.8,8.36,5.33,9.94,6.22,< 3.70,–,–,10100 nM,1.47,> 1 h,1.25,Activity [4]: Non-toxic; Activity [9]: Non-toxic; Activity [11]: Non-toxic; Activity [13]: Non-toxic; Activity [20]: Non-toxic
CC(C)(C)OC(=O)N1CCC(Oc2ccc3c(=O)c4c(F)cc(Cl)cc4[nH]c3c2)CC1,9.53,0.34 mg/kg,0.72 mg/kg,6.17,58.5 µL/min/mg,5.75,4.62,43.4,6.57,6.33,12.15,7.30,4.22,Non-toxic,Non-toxic,2170 nM,3.24,> 1 h,1.22,–
O=c1c2ccc(OCc3cccc(OC(F)(F)F)c3)cc2[nH]c2cc(F)cc(Cl)c12,11.40,–,–,5.45,33.5 µL/min/mg,5.37,5.09,39.5,7.69,5.93,10.52,6.82,< 3.70,Non-toxic,Non-toxic,5930 nM,1.68,> 1 h,1.4,Activity [25]: Active; Out Of 5 - 5 Mouse Cured
COc1cc(C)c2c(Oc3cccc(C(F)(F)F)c3)c(OC)cc(NC(C)CCCN)c2n1 (stereo not drawn) [TAFENOQUINE],–,–,–,5.26,–,5.11,89.4,380,–,6.77,–,7.40,–,–,–,15200 nM,2.79,–,1.95,Activity [26]: Not active; Out Of 5 - 0 Mouse Cured
O=c1c2ccc(Oc3cccc(OC(F)(F)F)c3)cc2[nH]c2cc(Cl)cc(F)c12,10.70,0.19 mg/kg,0.9 mg/kg,4.79,273 µL/min/mg,< 4.70,> 35.7,> 667,8.07,6.25,10.15,7.52,< 3.70,Non-toxic,Non-toxic,> 20000 nM,> 1.24,–,–,–
CCCCCCOc1ccc2c(=O)c3c([nH]c2c1)CCCC3,8.56,–,–,< 4.70,37.6 µL/min/mg,< 4.70,–,> 7.09,8.29,< 4.70,9.32,5.55,< 3.70,–,–,> 20000 nM,–,–,–,Activity [4]: Non-toxic; Activity [9]: Non-toxic; Activity [11]: Non-toxic; Activity [13]: Non-toxic; Activity [25]: Active; Out Of 5 - 5 Mouse Cured; Activity [20]: Non-toxic
O=c1c2ccc(OCc3ccc(OC(F)(F)F)cc3)cc2[nH]c2cc(Cl)cc(F)c12,9.89,0.1 mg/kg,0.55 mg/kg,6.55,< 3.125 µL/min/mg,6.33,1.76,10.4,7.52,6.33,13.39,7.10,3.75,Non-toxic,Non-toxic,830 nM,2.96,> 1 h,1.77,–
O=c1c2ccc(OCc3ccc(C(F)(F)F)cc3)cc2[nH]c2cc(Cl)cc(F)c12,9.74,0.32 mg/kg,1.42 mg/kg,6.09,< 3.125 µL/min/mg,6.04,3.33,15.2,7.46,6.19,13.28,6.85,3.81,Non-toxic,Non-toxic,2130 nM,2.63,> 1 h,2.34,–
CCN(CC)CCCC(C)Nc1ccnc2cc(Cl)ccc12 (stereo not drawn) [CHLOROQUINE],–,–,–,–,–,–,–,–,–,–,–,–,–,Non-toxic,Non-toxic,–,–,–,–,–
